Data on 95 sequences can be found in the OligoGym collection.

Bases are written 5' to 3'; sugars and linkages follow in the same order, as letters with counts (s phosphorothioate, o phosphodiester; PS: all linkages phosphorothioate). The collection does not say whether C is 5-methylated. l = locked nucleic acid (LNA); d = 2'-deoxy (DNA) Where only a bound is given, the exact number is not on record here.

In the data set the target is Tau. Kind of data set: rat primary cortical neurons, FLIPR, 25 uM ASO.
In the case of “GATTAACCAATTAACCGAAC (sugars l3 d14 l3, PS)”, the calcium oscillation score is 98.8 % of control.
For “CATCAACACCTTTTAATTCA (sugars l2 d14 l4, PS)”, the calcium oscillation score is 98.4 % of control.
The same measure for AAGAGGGCAGCAGGCC (sugars l3 d10 l3, PS): 73.1 % of control.
The same measure for “TATTTCCAAATTCACTTTTA (sugars lldlldddddddddllddll, PS)”: 114 % of control.
Turning to TGGATATAGTTAAGGC (sugars l2 d11 l3, PS), the calcium oscillation score was 95.2 % of control.
In the case of “AACCAACTTTCATCTACT (sugars l4 d11 l3, PS)”, the calcium oscillation score was 73.5 % of control.
The same measure for CACTCTAACATCTTAG (sugars l4 d8 l4, PS): 77.6 % of control; for “TTGAAGTCCCGAGCCAAAGC (sugars l3 d14 l3, PS)”: 0 % of control; for AACTGCGAGGAGCAGC (sugars l3 d10 l3, PS): 25.9 % of control.
With CTCATTGCAACTTTAAC (sugars l4 d9 l4, PS), the calcium oscillation score is 84.9 % of control.
On to “CCTAGAACACAACACAC (sugars l3 d10 l4, PS)”, for which the calcium oscillation score was 58.6 % of control.
The same measure for CCTAAAGTCCCAGGTC (sugars l3 d10 l3, PS): 62.9 % of control; for CAGCCACTGTTGCCAC (sugars l2 d12 l2, PS): 51.2 % of control; for “TGATATTGTCCAGGGACCCA (sugars l3 d14 l3, PS)”: 0 % of control.
As to CAAACAGGATACAGT (sugars l3 d9 l3, PS), the calcium oscillation score is 49.6 % of control.
The same measure for CTGGTTTATGATGGAT (sugars l3 d10 l3, PS): 0 % of control; for AGAAATAAGTGGTAGT (sugars l4 d8 l4, PS): 88.1 % of control; for GTCGATGCTGCCGG (sugars l3 d8 l3, PS): 36.5 % of control.
Consider “TCTTCACATCCCAACTA (sugars l2 d12 l3, PS)”, for which the calcium oscillation score was 126 % of control.
The same measure for “TTTATCCCTCCATGATT (sugars l2 d12 l3, PS)”: 58.8 % of control.
On to CAATTAACCGAACTGC (sugars l3 d10 l3, PS), for which the calcium oscillation score is 89.7 % of control.
The same measure for GCTCTTCAAATCATTC (sugars l4 d8 l4, PS): 58.3 % of control.
With “TATTGAACTCACCCACT (sugars l2 d11 l4, PS)”, the calcium oscillation score was 65.7 % of control.
As for “TTACTGATCATAATCCT (sugars l4 d10 l3, PS)”, the calcium oscillation score is 67.3 % of control.
The same measure for TCCCTTTCAAACCAGC (sugars l2 d10 l4, PS): 92.3 % of control; for AATATTACATCAGTCT (sugars l4 d8 l4, PS): 34.6 % of control.
“CATGCTTACACACCACAC (sugars l2 d13 l3, PS)”: the calcium oscillation score was 73.5 % of control.
Regarding “CCTTACTTTCTACTCAATT (sugars l3 d14 l2, PS)”, the calcium oscillation score was 48.1 % of control.
As to “TATTTCCAAATTCACTTTTA (sugars l5 d10 l5, PS)”, the calcium oscillation score is ≥ 200 % of control.
On to AGAAATAAGTGGTAGT (sugars l2 d11 l3, PS), for which the calcium oscillation score is 102 % of control.
For “CTTTACCCATCTTAATTCAT (sugars l3 d15 l2, PS)”, the calcium oscillation score is 82.1 % of control.
Next, “TTAACTCATCAACACCTTT (sugars l3 d12 l4, PS)”: 84 % of control.
In the case of ATCATATCCTAAGCAT (sugars l3 d9 l4, PS), the calcium oscillation score was 60.1 % of control.
Next, “ACCCTTAGACATAACAC (sugars l3 d10 l4, PS)”: 59.7 % of control; “TTATTTCCAAATTCACTTTT (sugars lllddldddddddddldlll, PS)”: 108 % of control.
For CATTTTTGTCTCATTAT (sugars l4 d9 l4, PS), the calcium oscillation score is 51 % of control.
The same measure for AACTAAATTTACCTCA (sugars l4 d8 l4, PS): 88.1 % of control; for “AATTCACACAACAAACTAT (sugars l4 d11 l4, PS)”: 74.5 % of control.
Next, “TATTTCCAAATTCACTTTTA (sugars lllddldddddddddldlll, PS)”: 147 % of control.
Next, CACTCTCTGCATATAT (sugars l4 d9 l3, PS): 69 % of control; “CACCCACTTTCCTAATTC (sugars l3 d13 l2, PS)”: 65.6 % of control; “CTTTACCCATCTTAATTC (sugars l4 d11 l3, PS)”: 86.1 % of control.
On to “TTTATTTCCAAATTCACTTT (sugars l2 d16 l2, PS)”, for which the calcium oscillation score is 141 % of control.
Turning to “CCAATTAACCGAACTGCGAG (sugars l3 d14 l3, PS)”, the calcium oscillation score was 41.4 % of control.
Regarding “CTTTATTTCCAAATTCAC (sugars lldlddddddddddldll, PS)”, the calcium oscillation score was 136 % of control.
As to “ACAAACAATCCATTTATAT (sugars l4 d11 l4, PS)”, the calcium oscillation score is 46.2 % of control.
Next, “ACTTGGGTGGAGTACGGACC (sugars l3 d14 l3, PS)”: 0 % of control.
Regarding “TCAACTGGTTTGTAGACTAT (sugars l3 d14 l3, PS)”, the calcium oscillation score was 29.9 % of control.
Turning to “ATCAATTCTCATTTCAACCT (sugars l3 d15 l2, PS)”, the calcium oscillation score was 70.7 % of control.
Next, “CCCAGCGTGATCTTCCATCA (sugars l3 d14 l3, PS)”: 104 % of control; “ACCAACTTTCATCTACTTTT (sugars l3 d15 l2, PS)”: 90.5 % of control.
The same measure for GGCGGTGACTGCGAG (sugars l3 d9 l3, PS): 51.5 % of control; for “TAATGAGCCACACTTGGAGG (sugars l3 d14 l3, PS)”: 0 % of control; for “ACTGGTTTGTAGACTATTTG (sugars l3 d14 l3, PS)”: 0 % of control.
The same measure for “TTTTAACTCCCAACTCTTT (sugars l2 d13 l4, PS)”: 99.7 % of control; for ACAGCCTCATAAACCT (sugars l4 d10 l2, PS): 66.8 % of control; for GAGTTTGTGCAAGGTC (sugars l3 d10 l3, PS): 0 % of control.
As to “TTTTTCTCTCTTAACTTT (sugars l4 d10 l4, PS)”, the calcium oscillation score is 94.5 % of control.
The same measure for “CTACTATTTACTATGCA (sugars l4 d10 l3, PS)”: 78.4 % of control.
Next, “TTATTTCCAAATTCACTTTT (sugars l1 d17 l2, PS)”: 166 % of control; “CTTTATTTCCAAATTCACT (sugars l4 d10 l5, PS)”: 108 % of control; “CTCAAAAATCAACGCCT (sugars l3 d10 l4, PS)”: 57 % of control.
For the sequence “TATTTCCAAATTCACTTTTA (sugars l2 d16 l2, PS)”, the calcium oscillation score is ≥ 200 % of control.
CAACTGGTTTGTAGAC (sugars l3 d10 l3, PS): the calcium oscillation score was 42.9 % of control.
As to “CTTTATTTCCAAATTCACT (sugars l3 d11 l5, PS)”, the calcium oscillation score is 121 % of control.
For GAATATTACACCATCC (sugars l4 d8 l4, PS), the calcium oscillation score is 97 % of control.
The same measure for TAATCCTGTGCTTCAG (sugars l3 d10 l3, PS): 75.8 % of control.
Next, CATTGGAACTGAGCAC (sugars l3 d10 l3, PS): 8.33 % of control; GCTCCAACCACACCTT (sugars l2 d11 l3, PS): 85 % of control; CCAGCGTGATCTTC (sugars l3 d8 l3, PS): 120 % of control.
Next, “CCATCCTAAGTCAACCA (sugars l2 d13 l2, PS)”: 62.8 % of control; “CCCTCACTTTTTATTCAAC (sugars l2 d14 l3, PS)”: 76 % of control.
Turning to CTAAAGTCCCAGGTC (sugars l3 d9 l3, PS), the calcium oscillation score was 40.5 % of control.
In the case of GGCATGATTGTGGGCT (sugars l3 d10 l3, PS), the calcium oscillation score was 6.12 % of control.
For the sequence “AAATCAATTCTCATTTCAAC (sugars l4 d12 l4, PS)”, the calcium oscillation score is 58.2 % of control.
On to “ATGTTGCCTAATGAGCCACA (sugars l3 d14 l3, PS)”, for which the calcium oscillation score is 31.6 % of control.
Regarding “ACTCTTAGCATCCACTT (sugars l4 d11 l2, PS)”, the calcium oscillation score was 40.6 % of control.
Next, “TAGTAAACACCATCTCT (sugars l3 d10 l4, PS)”: 71.4 % of control; TCAGGTCTGGCATGG (sugars l3 d9 l3, PS): 0 % of control.
With “CAACTCTTAGCATCCACT (sugars l2 d14 l2, PS)”, the calcium oscillation score is 51.6 % of control.
Take “CATCCACTTAGACACTC (sugars l4 d11 l2, PS)”: the calcium oscillation score is 43.8 % of control.
The same measure for CTTACACATAGCTTCT (sugars l4 d8 l4, PS): 47.1 % of control; for TTAGCCCTAAAGTCCC (sugars l3 d10 l3, PS): 28.6 % of control.
Consider AGAGGCACAAGTCCTT (sugars l3 d10 l3, PS), for which the calcium oscillation score was 78.1 % of control.
The same measure for “TACTTTATTCCCTTAACAAT (sugars l2 d14 l4, PS)”: 91.3 % of control; for “CCTCTGTCTTAACTTTT (sugars l3 d10 l4, PS)”: 97 % of control.
Consider “AACTCTAAGTAGACCCTGGC (sugars l3 d14 l3, PS)”, for which the calcium oscillation score is 14.3 % of control.
The same measure for “CCAAATTCCTCATAATCCAA (sugars l2 d15 l3, PS)”: 73.4 % of control; for “ACCAATTATCTTTAAATTCT (sugars l4 d13 l3, PS)”: 77 % of control; for “GTCTTTGCTTTTACTGACCA (sugars l3 d14 l3, PS)”: 44.4 % of control.
Next, CCCTAAGCTCTCACTA (sugars l2 d12 l2, PS): 69.1 % of control; “CCTCCTAGAACACAACA (sugars l3 d12 l2, PS)”: 57 % of control; TGTAGACTATTTGC (sugars l3 d8 l3, PS): 30.9 % of control.
On to “CTTTTCCCAATTATTAAC (sugars l4 d10 l4, PS)”, for which the calcium oscillation score is 60.1 % of control.
Consider “TATTTCCAAATTCACTTTTA (sugars ldlllddddddddddlldll, PS)”, for which the calcium oscillation score was 145 % of control.
